From patent US20250302832A1, “PYRAZINE DERIVATIVES AND USES THEREOF” (FOGHORN THERAPEUTICS INC., priority 2022, published 2025)

Experiments:
[1] = target: T1, HiBit-BRG1 fusion protein (Homo sapiens, UniProt P51532); assay: HiBiT-BRG1 cell-based degradation assay (Nano-Glo HiBiT lytic detection, 24 h); settings: HeLa cell line expressing HiBit-BRG1 and LgBit, read-out: BRG1 HiBit Degradation Maximum (%)
T1 construct: expressed in transfected cells
Procedure, shortened: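 HeLa cells stably expressing HiBiT-BRG1 and LgBiT, 5000 per well, compound-treated 24 h, equilibrated 15 min at room temperature, then lysed with LgBiT-containing Nano-Glo HiBiT lytic reagent and luminescence read. % degradation normalised between DMSO (high control) and 2 μM reference BRM/BRG1 degrader (low control).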

HiBit-BRM fusion protein = target: T2, HiBit-BRM fusion protein (Homo sapiens, UniProt P51531); assay: HiBiT-BRM cell-based degradation assay (Nano-Glo HiBiT lytic detection, 24 h); settings: HeLa cell line expressing HiBiT-BRM; for DC50: read-out: BRM HiBit Degradation IC50
T2 construct: expressed in transfected cells
Procedure, shortened: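 Stable HeLa HiBiT-BRM cells treated 24 h with compounds (10-point 3-fold dilutions, 30 μM final top dose, duplicate). HiBiT levels read by Nano-Glo lytic luminescence; % degradation normalised to DMSO (high control) and 2 μM reference BRM/BRG1 degrader (low control).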

T1 sequence (P51532 whole entry, the tested form may be a part): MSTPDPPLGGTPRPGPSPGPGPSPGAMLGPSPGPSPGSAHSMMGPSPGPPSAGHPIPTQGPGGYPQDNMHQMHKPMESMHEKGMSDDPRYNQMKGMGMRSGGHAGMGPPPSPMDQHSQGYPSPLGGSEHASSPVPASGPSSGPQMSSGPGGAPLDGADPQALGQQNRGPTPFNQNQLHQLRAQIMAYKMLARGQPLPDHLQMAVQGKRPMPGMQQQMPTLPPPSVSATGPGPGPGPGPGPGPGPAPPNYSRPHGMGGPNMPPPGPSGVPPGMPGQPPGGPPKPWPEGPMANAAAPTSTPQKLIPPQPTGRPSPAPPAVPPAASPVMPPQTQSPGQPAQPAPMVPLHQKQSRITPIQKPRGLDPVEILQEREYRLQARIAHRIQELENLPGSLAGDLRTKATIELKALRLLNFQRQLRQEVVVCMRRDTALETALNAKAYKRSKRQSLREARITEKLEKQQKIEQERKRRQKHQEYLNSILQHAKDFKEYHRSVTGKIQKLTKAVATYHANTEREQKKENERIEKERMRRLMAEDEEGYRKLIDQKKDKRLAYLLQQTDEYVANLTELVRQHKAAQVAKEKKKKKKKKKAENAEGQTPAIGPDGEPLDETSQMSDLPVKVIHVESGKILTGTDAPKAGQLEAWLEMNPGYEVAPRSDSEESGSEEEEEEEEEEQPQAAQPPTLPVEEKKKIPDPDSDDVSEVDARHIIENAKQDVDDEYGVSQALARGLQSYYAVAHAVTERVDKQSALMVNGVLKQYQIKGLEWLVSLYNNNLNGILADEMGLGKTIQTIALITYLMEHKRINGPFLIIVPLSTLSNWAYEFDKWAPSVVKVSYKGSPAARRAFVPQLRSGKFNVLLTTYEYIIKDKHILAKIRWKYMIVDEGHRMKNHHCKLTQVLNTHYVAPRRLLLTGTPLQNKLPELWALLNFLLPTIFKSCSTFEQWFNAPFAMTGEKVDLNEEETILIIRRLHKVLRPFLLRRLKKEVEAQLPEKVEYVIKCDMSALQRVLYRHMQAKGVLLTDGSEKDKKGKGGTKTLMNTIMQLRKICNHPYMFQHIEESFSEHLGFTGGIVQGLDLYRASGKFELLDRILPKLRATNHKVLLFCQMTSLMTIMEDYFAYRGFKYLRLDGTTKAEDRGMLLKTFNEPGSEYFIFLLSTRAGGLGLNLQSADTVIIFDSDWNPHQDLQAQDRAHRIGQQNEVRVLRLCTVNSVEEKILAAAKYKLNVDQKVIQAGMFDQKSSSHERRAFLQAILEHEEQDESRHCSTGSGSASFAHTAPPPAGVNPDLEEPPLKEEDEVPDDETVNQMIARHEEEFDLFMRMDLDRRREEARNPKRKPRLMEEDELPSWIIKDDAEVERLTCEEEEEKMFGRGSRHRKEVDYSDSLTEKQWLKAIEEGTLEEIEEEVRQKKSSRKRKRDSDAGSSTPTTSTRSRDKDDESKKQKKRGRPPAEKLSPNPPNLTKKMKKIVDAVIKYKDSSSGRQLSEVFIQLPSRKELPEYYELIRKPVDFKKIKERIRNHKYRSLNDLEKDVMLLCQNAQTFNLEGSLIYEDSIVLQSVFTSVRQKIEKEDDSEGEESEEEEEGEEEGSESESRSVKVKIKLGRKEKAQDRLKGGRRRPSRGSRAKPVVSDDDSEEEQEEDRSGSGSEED
T2 sequence (P51531 whole entry, the tested form may be a part): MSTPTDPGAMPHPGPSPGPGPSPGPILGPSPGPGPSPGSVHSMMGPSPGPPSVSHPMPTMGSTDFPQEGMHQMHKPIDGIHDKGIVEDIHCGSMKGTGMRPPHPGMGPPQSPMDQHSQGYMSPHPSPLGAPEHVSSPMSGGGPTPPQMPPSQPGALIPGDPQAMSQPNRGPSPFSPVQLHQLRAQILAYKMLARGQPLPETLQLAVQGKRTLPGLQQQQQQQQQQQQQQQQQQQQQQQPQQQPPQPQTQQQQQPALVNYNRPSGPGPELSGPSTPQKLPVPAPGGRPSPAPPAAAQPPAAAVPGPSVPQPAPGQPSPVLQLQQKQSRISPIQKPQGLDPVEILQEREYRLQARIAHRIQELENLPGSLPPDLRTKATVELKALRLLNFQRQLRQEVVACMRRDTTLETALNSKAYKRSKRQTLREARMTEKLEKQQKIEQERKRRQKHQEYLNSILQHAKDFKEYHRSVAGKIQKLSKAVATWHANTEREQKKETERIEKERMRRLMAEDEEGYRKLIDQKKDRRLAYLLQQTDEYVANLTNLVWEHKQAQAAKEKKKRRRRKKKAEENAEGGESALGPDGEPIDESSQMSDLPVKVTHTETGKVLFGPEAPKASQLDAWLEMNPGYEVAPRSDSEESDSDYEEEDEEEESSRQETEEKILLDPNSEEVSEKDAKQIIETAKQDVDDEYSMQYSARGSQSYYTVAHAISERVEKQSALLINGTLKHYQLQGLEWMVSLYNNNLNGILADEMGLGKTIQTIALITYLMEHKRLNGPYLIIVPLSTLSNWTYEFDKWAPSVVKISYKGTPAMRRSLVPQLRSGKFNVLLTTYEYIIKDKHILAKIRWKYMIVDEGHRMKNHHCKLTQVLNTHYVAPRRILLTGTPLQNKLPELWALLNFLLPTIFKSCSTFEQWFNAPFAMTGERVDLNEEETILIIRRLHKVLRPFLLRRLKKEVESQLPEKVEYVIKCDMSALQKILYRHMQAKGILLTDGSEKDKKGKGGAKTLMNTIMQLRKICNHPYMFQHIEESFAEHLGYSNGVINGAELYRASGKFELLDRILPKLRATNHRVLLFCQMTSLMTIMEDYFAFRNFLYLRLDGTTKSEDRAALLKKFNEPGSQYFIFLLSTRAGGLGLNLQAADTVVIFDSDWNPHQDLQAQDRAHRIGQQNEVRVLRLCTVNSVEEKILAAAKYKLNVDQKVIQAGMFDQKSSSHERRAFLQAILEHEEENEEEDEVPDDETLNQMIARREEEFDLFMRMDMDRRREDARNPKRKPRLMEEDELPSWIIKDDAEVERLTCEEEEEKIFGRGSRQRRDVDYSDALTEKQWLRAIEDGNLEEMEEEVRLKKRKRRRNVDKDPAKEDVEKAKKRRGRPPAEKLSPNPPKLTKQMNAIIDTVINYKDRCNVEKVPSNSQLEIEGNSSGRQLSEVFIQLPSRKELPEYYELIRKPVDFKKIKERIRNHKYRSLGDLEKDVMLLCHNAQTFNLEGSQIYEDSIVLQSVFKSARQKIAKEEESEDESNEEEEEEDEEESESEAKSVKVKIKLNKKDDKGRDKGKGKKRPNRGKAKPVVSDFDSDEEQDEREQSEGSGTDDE

| Dmax [1] [%] | DC50 (HiBit-BRM fusion protein) [nM] | Structure (SMILES) | BRM HiBit Degradation Maximum (%) (HiBit-BRM fusion protein) |
| --- | --- | --- | --- |
| < 50 | > 10 | CC(C)C(C(=O)N1C[C@H](O)C[C@H]1C(=O)NC1CCC1)c1cc(N2CC3(CC(c4cc5nnc(-c6ccccc6O)cc5n4C4CCC4)C3)C2)no1 (stereo partly drawn) [Compound 118, (2S,4R)-N-cyclobutyl-1-(2-(3-(6-(5-cyclobutyl-3-(2-hydroxyphenyl)-5H-pyrrolo[3,2-c]pyridazin-6-yl)-2-azaspiro[3.3]heptan-2-yl)isoxazol-5-yl)-3-methylbutanoyl)-4-hydroxypyrrolidine-2-carboxamide] | A (“A” indicates maximum degradation ≥75%) |
| < 50 | > 10 | CC(C)C(C(=O)N1C[C@H](O)C[C@H]1C(=O)NC1CCCC1)c1cc(N2CC3(CC(c4cc5nnc(-c6ccccc6O)cc5n4C4CCC4)C3)C2)no1 (stereo partly drawn) [Compound 119, (2S,4R)-1-(2-(3-(6-(5-cyclobutyl-3-(2-hydroxyphenyl)-5H-pyrrolo[3,2-c]pyridazin-6-yl)-2-azaspiro[3.3]heptan-2-yl)isoxazol-5-yl)-3-methylbutanoyl)-N-cyclopentyl-4-hydroxypyrrolidine-2-carboxamide] | A (“A” indicates maximum degradation ≥75%) |
| < 50 | > 10 | CC(C)C(C(=O)N1C[C@H](O)C[C@H]1C(=O)NC12CC(C1)C2)c1cc(N2CC3(CC(c4cc5nnc(-c6ccccc6O)cc5n4C4CCC4)C3)C2)no1 (stereo partly drawn) [Compound 120, (2S,4R)-N-(bicyclo[1.1.1]pentan-1-yl)-1-(2-(3-(6-(5-cyclobutyl-3-(2-hydroxyphenyl)-5H-pyrrolo[3,2-c]pyridazin-6-yl)-2-azaspiro[3.3]heptan-2-yl)isoxazol-5-yl)-3-methylbutanoyl)-4-hydroxypyrrolidine-2-carboxamide] | A (“A” indicates maximum degradation ≥75%) |
| < 50 | > 10 | C#Cc1ccc([C@H](C)NC(=O)[C@@H]2C[C@@H](O)CN2C(=O)C(c2cc(N3CC4(CC(c5cc6nnc(-c7ccccc7O)cc6n5C5CCC5)C4)C3)no2)C(C)C)c(Cl)c1 (stereo partly drawn) [Compound 121, (2S,4R)-N-((S)-1-(2-chloro-4-ethynylphenyl)ethyl)-1-(2-(3-(6-(5-cyclobutyl-3-(2-hydroxyphenyl)-5H-pyrrolo[3,2-c]pyridazin-6-yl)-2-azaspiro[3.3]heptan-2-yl)isoxazol-5-yl)-3-methylbutanoyl)-4-hydroxypyrrolidine-2-carboxamide] | A (“A” indicates maximum degradation ≥75%) |
